In paper PMC12141336, “A dual inhibitor of TrxR1 and XIAP induces pyroptosis in melanoma” (Frontiers in Cell and Developmental Biology, 2025):

Key:
[1] = target: T1, TrxR1 (thioredoxin reductase 1) (Rattus norvegicus, UniProt O89049); assay: fluorescence quenching (Stern-Volmer) with GST as control; also DTNB assay on recombinant TrxR1, IC50 […]; assay type: binding
T1 construct: gene Txnrd1
T1 sequence (O89049 1-499): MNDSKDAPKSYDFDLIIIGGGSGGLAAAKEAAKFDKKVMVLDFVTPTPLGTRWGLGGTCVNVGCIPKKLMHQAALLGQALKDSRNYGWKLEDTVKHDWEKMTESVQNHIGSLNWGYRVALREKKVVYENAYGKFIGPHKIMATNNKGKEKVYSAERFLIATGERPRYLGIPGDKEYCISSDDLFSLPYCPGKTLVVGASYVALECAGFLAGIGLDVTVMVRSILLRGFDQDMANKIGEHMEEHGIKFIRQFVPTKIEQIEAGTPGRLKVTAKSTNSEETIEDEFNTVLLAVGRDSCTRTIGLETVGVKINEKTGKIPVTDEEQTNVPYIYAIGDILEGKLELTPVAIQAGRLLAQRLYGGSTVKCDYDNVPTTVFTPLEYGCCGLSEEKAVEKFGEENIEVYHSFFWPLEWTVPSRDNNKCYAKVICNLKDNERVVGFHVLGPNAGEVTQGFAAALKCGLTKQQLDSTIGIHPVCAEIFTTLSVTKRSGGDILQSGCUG

[2] = target: T1, TrxR1 (thioredoxin reductase 1); assay: DTNB assay on purified recombinant TrxR1, […] h incubation

| SMILES | Kd [1] | IC50 [2] |
| --- | --- | --- |
| CC(=O)CC#[C][Au][P](c1ccccc1)(c1ccccc1)C1CCCCC1 [TRI-03] | 0.31 ± 0.05 µM |  |
| CC[P](CC)(CC)=[Au][S][C@@H]1O[C@H](COC(C)=O)[C@@H](OC(C)=O)[C@H](OC(C)=O)[C@H]1OC(C)=O [auranofin] |  | 1.47 ± 0.03 µM |
